Legend:
Assay in all cases: normalised viability (% of control), CellTiter-Blue; higher = more viable cells (about 100 = DMSO control)
HCC1599 = conditions: incubation time: 72 h
In short: (§1)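 Vehicle (100) and a positive kill control (0) anchored the normalisation of each plate, and Z'-factor was used for quality control. Breast cancer cell lines in 20 µl suspension were incubated 72 h over compound in 5 µl medium in 384-well plates, followed by CellTiter-Blue at 560/590 nm. The value is normalised viability at a single listed concentration of the series.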

Hs578T [1] = conditions: incubation time: 72 h
In short: as §1

SK-BR-3 [2] = conditions: incubation time: 72 h
In short: as §1

MFM-223 [3] = conditions: incubation time: 72 h
In short: as §1

DU-4475 = conditions: incubation time: 72 h
In short: as §1

CAL-51 = conditions: incubation time: 72 h
In short: as §1

MDA-MB-453 [4] = conditions: incubation time: 72 h
In short: as §1

MDA-MB-468 [5] = conditions: incubation time: 72 h
In short: as §1

HCC1937 = conditions: incubation time: 72 h
In short: as §1

MDA-MB-231 [6] = conditions: incubation time: 72 h
In short: as §1

MDA-MB-436 [7] = conditions: incubation time: 72 h
In short: as §1

CAL-148 = conditions: incubation time: 72 h
In short: as §1

HCC1143 = conditions: incubation time: 72 h
In short: as §1

CAL-120 = conditions: incubation time: 72 h
In short: as §1

HDQ-P1 [8] = conditions: incubation time: 72 h
In short: as §1

BT-474 [9] = conditions: incubation time: 72 h
In short: as §1

BT-549 = conditions: incubation time: 72 h
In short: as §1

CAL-85-1 = conditions: incubation time: 72 h
In short: as §1

Hs578T [10] = conditions: 100 nM; incubation time: 72 h
Description: (§2)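 DSRT, CellTiter-Blue viability, 72 h incubation. Signal is normalised to DMSO and benzethonium chloride controls. Value is the normalised response at dose 3.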

SK-BR-3 [11] = conditions: 100 nM; incubation time: 72 h
Description: as §2

MFM-223 [12] = conditions: 100 nM; incubation time: 72 h
Description: as §2

MDA-MB-453 [13] = conditions: 10 nM; incubation time: 72 h
Description: as §2

MDA-MB-468 [14] = conditions: 100 nM; incubation time: 72 h
Description: as §2

MDA-MB-231 [15] = conditions: 100 nM; incubation time: 72 h
Description: as §2

MDA-MB-436 [16] = conditions: 100 nM; incubation time: 72 h
Description: as §2

HDQ-P1 [17] = conditions: 10 nM; incubation time: 72 h
Description: as §2

BT-474 [18] = conditions: 100 nM; incubation time: 72 h
Description: as §2

COc1c(C)cnc(Cn2cnc3c(Cl)nc(N)nc32)c1C [BIIB021]
normalised viability [%]
Conditions	3 nM	10 nM	30 nM	100 nM	1000 nM	10000 nM
BT-474 [9]	–	104	–	–	22.9	27.3
BT-549	–	87.8	–	–	36.5	31.1
CAL-51	103	–	102	101	–	–
CAL-85-1	81	–	81.5	86.1	–	–
CAL-120	–	84.1	–	–	18.4	15.2
CAL-148	87	–	88.6	72.3	–	–
DU-4475	94.8	–	76.1	80.8	–	–
HCC1143	–	80.8	–	–	32.1	30.6
HCC1599	–	102	–	–	58.8	40.7
HCC1937	–	83.1	–	–	25.1	22.1
HDQ-P1 [8]	110	–	110	77.8	–	–
Hs578T [1]	–	95.3	–	–	61	46.9
MDA-MB-231 [6]	–	86.1	–	–	34.1	23.8
MDA-MB-436 [7]	–	92.5	–	–	43.5	25.5
MDA-MB-453 [4]	96.5	–	79.5	38.4	–	–
MDA-MB-468 [5]	–	93.5	–	–	43.2	21.3
MFM-223 [3]	–	81.9	–	–	23	23.8
SK-BR-3 [2]	–	85.7	–	–	14.5	12.8

Conditions	normalised viability [%]
BT-474 [18]	59.4
HDQ-P1 [17]	114
Hs578T [10]	64.7
MDA-MB-231 [15]	61.4
MDA-MB-436 [16]	89.8
MDA-MB-453 [13]	76.4
MDA-MB-468 [14]	68.9
MFM-223 [12]	53.9
SK-BR-3 [11]	23.9

C#Cc1cccc(Nc2ncnc3cc(OC)c(OCCCCCCC(=O)NO)cc23)c1 [CUDC-101]
normalised viability [%]
Conditions	3 nM	10 nM	30 nM	100 nM	1000 nM	10000 nM
BT-474 [9]	–	108	–	–	28.2	3.84
BT-549	–	90.3	–	–	64.6	9.13
CAL-51	117	–	108	105	–	–
CAL-85-1	89	–	75.5	91	–	–
CAL-120	–	82.3	–	–	38.3	9.22
CAL-148	90.4	–	89.8	85.2	–	–
DU-4475	84	–	84.7	80.8	–	–
HCC1143	–	78.3	–	–	32.8	11.6
HCC1599	–	78.8	–	–	28.6	16
HCC1937	–	71.7	–	–	45.4	14.6
HDQ-P1 [8]	98.9	–	93.3	71.5	–	–
Hs578T [1]	–	91.3	–	–	38.2	5.55
MDA-MB-231 [6]	–	87.8	–	–	46	3.42
MDA-MB-436 [7]	–	94.7	–	–	53.9	12
MDA-MB-453 [4]	99.7	–	67.3	65.3	–	–
MDA-MB-468 [5]	–	100	–	–	25.5	8.4
MFM-223 [3]	–	75.1	–	–	20.4	2.11
SK-BR-3 [2]	–	75.5	–	–	16.8	2.82

Conditions	normalised viability [%]
BT-474 [18]	89.2
HDQ-P1 [17]	86.3
Hs578T [10]	70.2
MDA-MB-231 [15]	91.2
MDA-MB-436 [16]	117
MDA-MB-453 [13]	87.4
MDA-MB-468 [14]	66.2
MFM-223 [12]	63.3
SK-BR-3 [11]	58.9

O=P(O)(NCCCl)NCCCl [Ifosfamide mustard]
normalised viability [%]
Conditions	3 nM	10 nM	30 nM	100 nM	1000 nM	10000 nM
BT-474 [9]	–	128	–	–	117	119
BT-549	–	87.2	–	–	91	107
CAL-51	106	–	98.3	105	–	–
CAL-85-1	96	–	90.9	99.1	–	–
CAL-120	–	80.5	–	–	85.6	89.5
CAL-148	96.8	–	103	102	–	–
DU-4475	92.4	–	99.6	95.7	–	–
HCC1143	–	99.6	–	–	99.8	97.5
HCC1599	–	96.2	–	–	106	95.6
HCC1937	–	72.7	–	–	80.2	91.5
HDQ-P1 [8]	107	–	117	107	–	–
Hs578T [1]	–	106	–	–	102	112
MDA-MB-231 [6]	–	108	–	–	124	86.6
MDA-MB-436 [7]	–	110	–	–	73.3	104
MDA-MB-453 [4]	115	–	95.5	107	–	–
MDA-MB-468 [5]	–	98.5	–	–	93.9	86.9
MFM-223 [3]	–	92.4	–	–	83.3	97
SK-BR-3 [2]	–	101	–	–	107	111

Conditions	normalised viability [%]
BT-474 [18]	112
HDQ-P1 [17]	122
Hs578T [10]	72.2
MDA-MB-231 [15]	95.6
MDA-MB-436 [16]	98.3
MDA-MB-453 [13]	106
MDA-MB-468 [14]	100
MFM-223 [12]	95.2
SK-BR-3 [11]	86.2
